Experimental data: US9133158B2, “Bicyclic dihydroisoquinoline-1-one derivatives” (Hoffmann-La Roche Inc., priority 2011, dated 2015)
pEC50: −log10 of the molar value.

Key:
human CYP11B2 = target: T1, human CYP11B2 (Homo sapiens, UniProt P19099); assay: G-402 cellular enzyme assay, human CYP11B2 (aldosterone release, HTRF); format: cell-based; conditions: G-402 cells, 1 μM Deoxycorticosterone
T1 construct: expressed in transfected cells
T1 sequence (P19099 25-503): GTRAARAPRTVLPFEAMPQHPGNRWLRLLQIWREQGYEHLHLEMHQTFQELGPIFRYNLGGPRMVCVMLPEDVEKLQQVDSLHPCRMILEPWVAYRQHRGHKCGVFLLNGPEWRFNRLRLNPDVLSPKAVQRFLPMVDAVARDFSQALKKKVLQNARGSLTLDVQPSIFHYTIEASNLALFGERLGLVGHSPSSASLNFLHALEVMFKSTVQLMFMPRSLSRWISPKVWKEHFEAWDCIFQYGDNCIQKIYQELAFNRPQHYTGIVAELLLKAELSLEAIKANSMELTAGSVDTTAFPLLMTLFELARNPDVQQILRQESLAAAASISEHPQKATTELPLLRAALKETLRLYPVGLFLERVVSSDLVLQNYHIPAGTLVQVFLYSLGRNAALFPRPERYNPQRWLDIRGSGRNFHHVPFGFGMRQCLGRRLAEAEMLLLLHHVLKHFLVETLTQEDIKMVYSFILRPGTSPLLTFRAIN
Method in brief: (§1)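 G-402 cells stably expressing human CYP11B1 or CYP11B2, in DMEM/F12 with 2.5% charcoal-treated FCS, were incubated 16 h with test compound and substrate (1 μM 11-deoxycortisol for CYP11B1; 1 μM deoxycorticosterone for CYP11B2). Cortisol or aldosterone in supernatant was quantified by HTRF; EC50 from 4-parameter MMF fit.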

human CYP11B1 = target: T2, human CYP11B1 (Homo sapiens, UniProt P15538); assay: G-402 cellular enzyme assay, human CYP11B1 (cortisol release, HTRF); format: cell-based; conditions: G-402 cells, 1 μM Deoxycortisol
T2 construct: expressed in transfected cells
T2 sequence (P15538 25-503): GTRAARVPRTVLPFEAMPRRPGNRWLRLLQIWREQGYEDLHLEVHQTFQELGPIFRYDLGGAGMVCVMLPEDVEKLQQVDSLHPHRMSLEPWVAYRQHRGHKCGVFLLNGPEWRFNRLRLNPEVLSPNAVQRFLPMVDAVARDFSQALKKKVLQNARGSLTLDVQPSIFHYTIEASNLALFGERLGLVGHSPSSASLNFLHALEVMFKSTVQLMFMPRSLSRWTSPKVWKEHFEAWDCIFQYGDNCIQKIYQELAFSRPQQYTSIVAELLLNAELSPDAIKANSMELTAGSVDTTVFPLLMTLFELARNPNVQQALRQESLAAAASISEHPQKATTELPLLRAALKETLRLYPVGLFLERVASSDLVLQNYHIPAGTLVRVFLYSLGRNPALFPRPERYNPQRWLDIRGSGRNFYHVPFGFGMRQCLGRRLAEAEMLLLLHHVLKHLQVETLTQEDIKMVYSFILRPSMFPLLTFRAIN
Method in brief: as §1

| Structure (SMILES) | pEC50 (human CYP11B2) | pEC50 (human CYP11B1) |
| --- | --- | --- |
| O=C1c2ccc(Cl)cc2CCN1c1cncc2cccc([N+](=O)[O-])c12 [Example 286, 6-Chloro-5′-nitro-3,4-dihydro-[2,4′]biisoquinolinyl-1-one] | 6.58 | 5.52 |
| O=C1c2ccc(Cl)cc2CCN1c1cncc2c([N+](=O)[O-])cccc12 [Example 287, 6-Chloro-8′-nitro-3,4-dihydro-[2,4′]biisoquinolinyl-1-one] | 6.26 | 5.19 |
| CCS(=O)(=O)Nc1cccc2c(N3CCc4cc(Cl)ccc4C3=O)cncc12 [Example 289, Ethanesulfonic acid (6-chloro-1-oxo-3,4-dihydro-1H-[2,4′]biisoquinolinyl-8′-yl)-amide] | 7.15 | 6.73 |
| O=C1c2ccc(Cl)cc2C2(CC2)N1c1cncc(OC(F)F)c1 [Example 291, 6′-Chloro-2′-[5-(difluoromethoxy)pyridin-3-yl]spiro[cyclo-propane-1,1′-isoindol]-3′(2′H)-one] | 8.49 | 6.91 |
| CC1(C)c2nc(Cl)ccc2C(=O)N1c1cncc(OC(F)F)c1 [Example 293, 2-Chloro-6-(5-difluoromethoxy-pyridin-3-yl)-7,7-dimethyl-6,7-dihydro-pyrrolo[3,4-b]pyridin-5-one] | 7.79 | 6.55 |
| COc1ccc2c(n1)C(C)(C)N(c1cncc(F)c1)C2=O [Example 294, 6-(5-Fluoro-pyridin-3-yl)-2-methoxy-7,7-dimethyl-6,7-dihydro-pyrrolo[3,4-b] pyridin-5-one] | 6.69 | 5.01 |
| COc1ccc2c(n1)C(C)(C)N(c1cncc(OC(F)F)c1)C2=O [Example 295, 6-(5-Difluoromethoxy-pyridin-3-yl)-2-methoxy-7,7-dimethyl-6,7-dihydro-pyrrolo[3,4-b] pyridin-5-one] | 7.31 | 6.07 |
| O=C1c2ccc(Cl)cc2C2(CC2)N1c1cccnc1 [Example 296, 6′-Chloro-2′-(pyridin-3-yl)spiro[cyclopropane-1,1′-isoindol]-3′(2′H)-one] | 6.88 | 5.35 |
| O=C1c2ccc(Cl)cc2C(C2CC2)N1c1cncc(F)c1 (stereo not shown) [Example 297, 5-Chloro-3-cyclopropyl-2-(5-fluoro-pyridin-3-yl)-2,3-dihydro-isoindol-1-one] | 6.68 | 4.89 |
| CC1(C)c2nc(Cl)ccc2C(=O)N1c1cccnc1 [Example 298, 2-Chloro-7,7-dimethyl-6-pyridin-3-yl-6,7-dihydro-pyrrolo[3,4-b]pyridin-5-one] | 6.76 | 4.86 |
| CCOc1ccc2c(n1)C(C)(C)N(c1cncc(F)c1)C2=O [Example 299, 2-Ethoxy-6-(5-fluoro-pyridin-3-yl)-7,7-dimethyl-6,7-dihydro-pyrrolo[3,4-b]pyridin-5-one] | 6.10 | 4.31 |
| O=C1c2ccc(Cl)cc2C(C2CC2)N1c1cccnc1 (stereo not shown) [Example 301, 5-Chloro-3-cyclopropyl-2-pyridin-3-yl-2,3-dihydro-isoindol-1-one] | 6.79 | 4.49 |
| O=C1c2ccc(Cl)cc2C(C2CC2)N1c1cncc(OC(F)F)c1 (stereo not shown) [Example 302, 5-Chloro-3-cyclopropyl-2-(5-difluoromethoxy-pyridin-3-yl)-2,3-dihydro-isoindol-1-one] | 7.03 | 5.29 |
| CCOc1ccc2c(n1)C(C)(C)N(c1cncc(OC(F)F)c1)C2=O [Example 303, 6-(5-Difluoromethoxy-pyridin-3-yl)-2-ethoxy-7,7-dimethyl-6,7-dihydro-pyrrolo[3,4-b]pyridin-5-one] | 7.03 | 4.90 |
| CC(C)Oc1cncc(N2C(=O)c3ccc(Cl)cc3C2(C)C)c1 [Example 304, 5-Chloro-2-(5-isopropoxy-pyridin-3-yl)-3,3-dimethyl-2,3-dihydro-isoindol-1-one] | 8.62 | 7.11 |
| O=C1c2ccc(Cl)cc2C2(CC2)N1c1cnccc1Cl [Example 305, 6′-Chloro-2′-(4-chloropyridin-3-yl)spiro[cyclopropane-1,1′-isoindol]-3′(2′H)-one] | 8.27 | 6.07 |
| CC1(C)c2cc(Cl)ccc2C(=O)N1c1cncc(OC2CC2)c1 [Example 306, 5-Chloro-2-(5-cyclopropoxy-pyridin-3-yl)-3,3-dimethyl-2,3-dihydro-isoindol-1-one] | 8.24 | 6.94 |
| NC1CCCc2c1cncc2N1Cc2cc(Cl)ccc2C1=O (stereo not shown) [Example 311, 2-(8-Amino-5,6,7,8-tetrahydro-isoquinolin-4-yl)-5-chloro-2,3-dihydro-isoindol-1-one] | 6.09 | 5.19 |
| O=C1c2ccc(Cl)cc2CN1c1cncc2c1CCC[C@H]2O [Example 341, 5-Chloro-2-((R)-8-hydroxy-5,6,7,8-tetrahydro-isoquinolin-4-yl)-2,3-dihydro-isoindol-1-one] | 7.49 | 5.78 |
| CC1(C)c2cc(Cl)ccc2C(=O)N1c1cncc(Cn2ccc(N)n2)c1 [Example 380, 2-[5-(3-Amino-pyrazol-1-ylmethyl)-pyridin-3-yl]-5-chloro-3,3-dimethyl-2,3-dihydro-isoindol-1-one] | 7.44 | 5.62 |
| CC1(C)c2cc(Cl)ccc2C(=O)N1c1cncc(CNc2cc[nH]n2)c1 [Example 381, 5-Chloro-3,3-dimethyl-2-{5-[(1H-pyrazol-3-ylamino)-methyl]-pyridin-3-yl}-2,3-dihydro-isoindol-1-one] | 8.47 | 6.86 |
| CCS(=O)(=O)NCc1cncc(N2C(=O)c3ccc(Cl)cc3C2(C)C)c1 [Example 387, Ethanesulfonic acid [5-(6-chloro-1,1-dimethyl-3-oxo-1,3-dihydro-isoindol-2-yl)-pyridin-3-ylmethyl]-amide] | 7.04 | 5.55 |

Results, then the compound that gave them:

| pEC50 (human CYP11B2) | pEC50 (human CYP11B1) | Structure (SMILES) |
| --- | --- | --- |
| 6.27 | 5.05 | Nc1cccc2c(N3CCc4cc(Cl)ccc4C3=O)cncc12 [Example 288, 8′-Amino-6-chloro-3,4-dihydro-[2,4′]biisoquinolinyl-1-one] |
| 6.99 | 5.41 | O=C1c2ccc(Cl)cc2C2(CC2)N1c1cncc(F)c1 [Example 290, 6′-Chloro-2′-(5-fluoropyridin-3-yl)spiro[cyclo-propane-1,1′-isoindol]-3′(2′H)-one] |
| 6.29 | 4.44 | CC1(C)c2nc(Cl)ccc2C(=O)N1c1cncc(F)c1 [Example 292, 2-Chloro-6-(5-fluoro-pyridin-3-yl)-7,7-dimethyl-6,7-dihydro-pyrrolo[3,4-b]pyridin-5-one] |
| 6.67 | 4.85 | COc1ccc2c(n1)C(C)(C)N(c1cccnc1)C2=O [Example 300, 2-Methoxy-7,7-dimethyl-6-pyridin-3-yl-6,7-dihydro-pyrrolo[3,4-b]pyridin-5-one] |
| 7.05 | 4.85 | O=C1c2ccc(Cl)cc2CN1c1cncc2c1CCC[C@@H]2O [Example 340, 5-Chloro-2-((S)-8-hydroxy-5,6,7,8-tetrahydro-isoquinolin-4-yl)-2,3-dihydro-isoindol-1-one] |
| 7.59 | 6.43 | CC1(C)c2cc(Cl)ccc2C(=O)N1c1cncc(Cn2cccn2)c1 [Example 379, 5-Chloro-3,3-dimethyl-2-(5-pyrazol-1-ylmethyl-pyridin-3-yl)-2,3-dihydro-isoindol-1-one] |
| 7.47 | 5.82 | Nc1ccn(Cc2cncc(N3CCc4cc(Cl)ccc4C3=O)c2)n1 [Example 382, 2-[5-(3-Amino-pyrazol-1-ylmethyl)-pyridin-3-yl]-6-chloro-3,4-dihydro-2H-isoquinolin-1-one] |
| 7.68 | 6.11 | CC1(C)c2nc(Cl)ccc2C(=O)N1c1cncc(CNc2cc[nH]n2)c1 [Example 383, 2-Chloro-7,7-dimethyl-6-{5-[(1H-pyrazol-3-ylamino)-methyl]-pyridin-3-yl}-6,7-dihydro-pyrrolo[3,4-b]pyridin-5-one] |
| 7.62 | 5.50 | COc1ccc2c(n1)C(C)(C)N(c1cncc(CNc3cc[nH]n3)c1)C2=O [Example 384, 2-Methoxy-7,7-dimethyl-6-{5-[(1H-pyrazol-3-ylamino)-methyl]-pyridin-3-yl}-6,7-dihydro-pyrrolo[3,4-b]pyridin-5-one] |
| 8.22 | 6.38 | O=C1c2ccc(Cl)cc2C2(CC2)N1c1cncc(CNc2cc[nH]n2)c1 [Example 386, 6′-Chloro-2′-{5-[(1H-pyrazol-3-ylamino)methyl]pyridin-3-yl}spiro [cyclopropane-1,1′-isoindol]-3′(2′H)-one] |
